According to patent publication US10934300B2, “Atropisomerism for enhanced kinase inhibitor selectivity” (San Diego State University Foundation, priority 2017, dated 2021):
“And” between values parts separate entries of the source, which are not always exact repeats. Identical values can stand only once.

Legend:
Ret kinase = Ret kinase (Homo sapiens, UniProt P07949); test: Z'-LYTE kinase inhibition, Ret; conditions: for IC50 of compound Kinase/IC50 of compound Yes: Ret relative to Yes; for IC50: Ret IC50 (nM), Table 4
Chain of Ret kinase (P07949 29-1114): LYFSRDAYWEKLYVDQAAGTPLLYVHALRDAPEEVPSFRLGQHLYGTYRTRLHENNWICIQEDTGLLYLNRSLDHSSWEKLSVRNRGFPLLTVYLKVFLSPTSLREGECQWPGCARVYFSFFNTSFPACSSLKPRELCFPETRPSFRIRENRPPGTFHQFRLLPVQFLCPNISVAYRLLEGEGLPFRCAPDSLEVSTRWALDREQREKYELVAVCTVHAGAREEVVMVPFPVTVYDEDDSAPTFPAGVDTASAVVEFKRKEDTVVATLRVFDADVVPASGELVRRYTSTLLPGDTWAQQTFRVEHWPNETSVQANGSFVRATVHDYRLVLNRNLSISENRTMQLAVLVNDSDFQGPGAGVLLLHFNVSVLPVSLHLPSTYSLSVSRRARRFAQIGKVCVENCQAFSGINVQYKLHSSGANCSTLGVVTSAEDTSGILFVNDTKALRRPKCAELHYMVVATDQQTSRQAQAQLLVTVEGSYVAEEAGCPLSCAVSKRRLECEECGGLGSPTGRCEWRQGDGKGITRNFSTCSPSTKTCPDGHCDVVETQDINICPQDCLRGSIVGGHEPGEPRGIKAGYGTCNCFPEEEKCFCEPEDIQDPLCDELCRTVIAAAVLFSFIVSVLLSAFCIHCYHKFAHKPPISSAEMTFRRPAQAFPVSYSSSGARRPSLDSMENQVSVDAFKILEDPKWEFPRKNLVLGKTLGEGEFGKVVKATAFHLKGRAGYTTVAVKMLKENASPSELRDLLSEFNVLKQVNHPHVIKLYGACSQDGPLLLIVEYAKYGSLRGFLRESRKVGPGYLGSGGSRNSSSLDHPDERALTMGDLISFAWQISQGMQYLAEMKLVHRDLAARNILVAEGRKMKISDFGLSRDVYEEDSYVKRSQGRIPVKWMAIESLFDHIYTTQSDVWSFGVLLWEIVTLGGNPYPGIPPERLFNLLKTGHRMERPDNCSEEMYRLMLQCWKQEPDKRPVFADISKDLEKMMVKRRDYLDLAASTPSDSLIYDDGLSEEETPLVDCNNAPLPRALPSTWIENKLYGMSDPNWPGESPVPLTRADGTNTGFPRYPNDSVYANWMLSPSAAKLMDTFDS

Src kinase = Src kinase (Homo sapiens, UniProt P12931); test: Z'-LYTE kinase inhibition, Src; conditions: for IC50 of compound Kinase/IC50 of compound Yes: Src relative to Yes; for IC50: Src IC50 (nM), Table 4
Chain of Src kinase (P12931 whole entry): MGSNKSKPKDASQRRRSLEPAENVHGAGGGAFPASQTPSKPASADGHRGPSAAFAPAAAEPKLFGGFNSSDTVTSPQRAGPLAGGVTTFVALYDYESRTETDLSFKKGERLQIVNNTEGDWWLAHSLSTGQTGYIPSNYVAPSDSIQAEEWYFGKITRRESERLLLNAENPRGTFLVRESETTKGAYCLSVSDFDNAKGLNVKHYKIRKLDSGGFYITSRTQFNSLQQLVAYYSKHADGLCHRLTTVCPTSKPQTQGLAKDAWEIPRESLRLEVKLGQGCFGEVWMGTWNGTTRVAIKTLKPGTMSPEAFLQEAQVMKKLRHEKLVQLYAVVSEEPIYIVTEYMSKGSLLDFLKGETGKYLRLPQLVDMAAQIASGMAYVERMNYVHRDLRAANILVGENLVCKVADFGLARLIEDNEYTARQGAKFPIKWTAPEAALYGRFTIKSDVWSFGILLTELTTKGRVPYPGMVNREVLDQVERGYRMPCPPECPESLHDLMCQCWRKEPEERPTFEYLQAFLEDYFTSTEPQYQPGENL

EGFR = EGFR (Homo sapiens, UniProt P00533); test: Z'-LYTE kinase inhibition, EGFR; conditions: EGFR relative to Yes
Chain of EGFR (P00533 25-1210): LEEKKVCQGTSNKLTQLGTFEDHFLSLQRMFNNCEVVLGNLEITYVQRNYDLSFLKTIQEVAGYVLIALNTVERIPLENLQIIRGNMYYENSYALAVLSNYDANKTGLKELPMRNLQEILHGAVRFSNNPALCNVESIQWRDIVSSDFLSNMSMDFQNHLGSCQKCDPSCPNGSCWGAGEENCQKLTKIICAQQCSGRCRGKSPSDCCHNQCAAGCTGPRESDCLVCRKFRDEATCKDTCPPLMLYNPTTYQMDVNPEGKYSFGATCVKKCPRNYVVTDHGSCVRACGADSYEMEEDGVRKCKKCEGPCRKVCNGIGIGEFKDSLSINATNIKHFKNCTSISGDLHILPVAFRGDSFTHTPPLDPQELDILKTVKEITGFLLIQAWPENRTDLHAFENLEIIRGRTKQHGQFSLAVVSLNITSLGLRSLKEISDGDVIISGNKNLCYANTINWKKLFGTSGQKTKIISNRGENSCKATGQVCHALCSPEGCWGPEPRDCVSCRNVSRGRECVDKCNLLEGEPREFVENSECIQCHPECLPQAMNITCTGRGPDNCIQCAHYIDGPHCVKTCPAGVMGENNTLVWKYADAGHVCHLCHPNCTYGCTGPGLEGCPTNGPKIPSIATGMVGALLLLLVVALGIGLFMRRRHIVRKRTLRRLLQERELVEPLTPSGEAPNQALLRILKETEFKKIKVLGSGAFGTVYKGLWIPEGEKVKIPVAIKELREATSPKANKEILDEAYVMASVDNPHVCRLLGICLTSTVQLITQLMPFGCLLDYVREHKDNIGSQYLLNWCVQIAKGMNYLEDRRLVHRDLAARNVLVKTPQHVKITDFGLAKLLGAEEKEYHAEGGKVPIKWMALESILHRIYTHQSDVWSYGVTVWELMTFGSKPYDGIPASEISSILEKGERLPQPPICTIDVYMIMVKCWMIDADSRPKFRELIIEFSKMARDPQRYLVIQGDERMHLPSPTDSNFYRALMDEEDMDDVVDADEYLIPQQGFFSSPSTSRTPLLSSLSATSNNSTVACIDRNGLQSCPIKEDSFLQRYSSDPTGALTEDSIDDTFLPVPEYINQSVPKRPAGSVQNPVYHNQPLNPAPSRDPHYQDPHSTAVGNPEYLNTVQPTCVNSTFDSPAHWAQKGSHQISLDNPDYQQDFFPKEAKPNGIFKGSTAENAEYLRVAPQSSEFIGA

Abl = Abl (Homo sapiens, UniProt P00519); test: Z'-LYTE kinase inhibition, Abl; conditions: for IC50 of compound Kinase/IC50 of compound Yes: Abl relative to Yes
Chain of Abl (P00519 whole entry): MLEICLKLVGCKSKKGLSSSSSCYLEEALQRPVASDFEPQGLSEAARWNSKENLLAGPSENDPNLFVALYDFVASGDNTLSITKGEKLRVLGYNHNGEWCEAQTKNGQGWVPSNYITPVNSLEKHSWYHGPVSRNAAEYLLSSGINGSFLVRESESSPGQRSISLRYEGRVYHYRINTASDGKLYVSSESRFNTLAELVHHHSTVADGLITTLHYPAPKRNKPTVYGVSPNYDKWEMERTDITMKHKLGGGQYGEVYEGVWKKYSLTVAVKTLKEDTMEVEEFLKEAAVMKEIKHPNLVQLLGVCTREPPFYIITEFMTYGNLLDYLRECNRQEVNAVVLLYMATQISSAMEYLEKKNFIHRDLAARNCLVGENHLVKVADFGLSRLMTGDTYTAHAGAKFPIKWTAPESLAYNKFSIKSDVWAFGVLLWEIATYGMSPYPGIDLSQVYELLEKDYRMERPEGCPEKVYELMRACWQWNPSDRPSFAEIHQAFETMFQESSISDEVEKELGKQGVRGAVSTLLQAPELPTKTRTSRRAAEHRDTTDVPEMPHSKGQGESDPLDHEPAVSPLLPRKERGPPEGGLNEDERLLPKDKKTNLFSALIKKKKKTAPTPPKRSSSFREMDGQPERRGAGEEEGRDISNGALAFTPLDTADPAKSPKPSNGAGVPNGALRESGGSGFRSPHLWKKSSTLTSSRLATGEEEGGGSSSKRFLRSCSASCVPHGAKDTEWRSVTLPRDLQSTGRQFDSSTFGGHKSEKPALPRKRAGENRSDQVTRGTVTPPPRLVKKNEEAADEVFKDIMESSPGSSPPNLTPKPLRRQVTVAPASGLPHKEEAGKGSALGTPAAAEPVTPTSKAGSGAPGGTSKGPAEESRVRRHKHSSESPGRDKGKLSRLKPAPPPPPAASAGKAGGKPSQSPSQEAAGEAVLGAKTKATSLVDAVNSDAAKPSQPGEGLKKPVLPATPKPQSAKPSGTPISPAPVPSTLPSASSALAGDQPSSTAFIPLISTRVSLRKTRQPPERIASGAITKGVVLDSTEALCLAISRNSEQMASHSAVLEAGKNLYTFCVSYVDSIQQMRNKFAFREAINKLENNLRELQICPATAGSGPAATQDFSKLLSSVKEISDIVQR

Yes = Yes (Homo sapiens, UniProt P07947); test: Z'-LYTE kinase inhibition, Yes; conditions: for IC50 of compound Kinase/IC50 of compound Yes: Yes relative to Yes
Chain of Yes (P07947 whole entry): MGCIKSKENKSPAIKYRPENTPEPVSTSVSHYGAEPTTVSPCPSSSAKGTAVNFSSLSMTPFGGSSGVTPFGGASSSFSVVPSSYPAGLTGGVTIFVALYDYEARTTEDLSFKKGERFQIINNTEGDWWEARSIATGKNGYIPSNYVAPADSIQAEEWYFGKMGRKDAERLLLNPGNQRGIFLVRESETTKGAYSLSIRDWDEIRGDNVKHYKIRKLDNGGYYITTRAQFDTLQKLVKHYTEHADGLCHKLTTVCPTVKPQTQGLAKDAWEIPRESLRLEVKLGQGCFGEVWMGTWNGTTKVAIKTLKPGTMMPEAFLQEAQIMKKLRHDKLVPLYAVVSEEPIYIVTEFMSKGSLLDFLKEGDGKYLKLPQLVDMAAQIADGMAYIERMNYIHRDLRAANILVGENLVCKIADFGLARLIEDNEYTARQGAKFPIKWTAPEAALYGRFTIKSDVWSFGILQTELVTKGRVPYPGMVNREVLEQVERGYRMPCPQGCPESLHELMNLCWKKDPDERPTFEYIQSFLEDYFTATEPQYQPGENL

[1] = tested on: panel of tyrosine kinases; test: Kinase inhibitor profiling across a panel of tyrosine kinases, selectivity score; format: biochemical
Procedure: To analyze each analog's selectivity across the panel, selectivity scores were used (Davis et al., Nat. Biotechnol. 2011, 29, 1046-51), which are simply the number of kinases inhibited above a certain threshold divided by the number of kinases evaluated. […] For example at 1000 nM 2e-(R) yielded an S(40%) of 0.11 while 2e-(S) gave an S(40%) of 0.16. […] Differences in selectivity between 2e-(R) and 2e-(S) at 5000 nM (4.5 times the IC50 of 2e-(S) toward Src) and for 5 at 1000 nM (6.25 times the IC50 of 5 toward Src) can be viewed graphically across tyrosine kinases (FIG. 3). Importantly, similar trends were also observed across each of the atropisomeric series tested.
All samples were sent out to Life Technologies to obtain kinase inhibition data. A brief description of the assays and analyses are included below.
Assay Theory (SelectScreen® Kinase Profiling Services (Life Technologies, Madison, Wis. USA). The Z′-LYTE® biochemical assay employs a fluorescence-based, coupled-enzyme format and is based on the differential sensitivity of phosphorylated and non-phosphorylated peptides to proteolytic cleavage. The peptide substrate is labeled with two fluorophores—one at each end—that make up a FRET pair.
In the primary reaction, the kinase transfers the gamma-phosphate of ATP to a single tyrosine, serine or threonine residue in a synthetic FRET-peptide. In the secondary reaction, a site-specific protease recognizes and cleaves non-phosphorylated FRET-peptides. Phosphorylation of FRET-peptides suppresses cleavage by the Development Reagent. Cleavage disrupts FRET between the donor (i.e., coumarin) and acceptor (i.e., fluorescein) fluorophores on the FRET-peptide, whereas uncleaved, phosphorylated FRET-peptides maintain FRET. A ratiometric method, which calculates the ratio (the Emission Ratio) of donor emission to acceptor emission after excitation of the donor fluorophore at 400 nm, is used to quantitate reaction progress, as shown in the equation below: […]
A significant benefit of this ratiometric method for quantitating reaction progress is the elimination of well-to-well variations in FRET-peptide concentration and signal intensities. […] Both cleaved and uncleaved FRET-peptides contribute to the fluorescence signals and therefore to the Emission Ratio. The extent of phosphorylation of the FRET-peptide can be calculated from the Emission Ratio. The Emission Ratio will remain low 1f the FRET-peptide is phosphorylated (i.e., no kinase inhibition) and will be high if the FRET-peptide is non-phosphorylated (i.e., kinase inhibition).
Both cleaved and uncleaved FRET-peptides contribute to the fluorescence signals and therefore to the Emission Ratio. The extent of phosphorylation of the FRET-peptide can be calculated from the Emission Ratio. The Emission Ratio will remain low if the FRET-peptide is phosphorylated (i.e., no kinase inhibition) and will be high if the FRET-peptide is non-phosphorylated (i.e., kinase inhibition).

[2] = Experimental measurement of the barriers to rotation (racemization followed by chiral HPLC); format: physicochemical; conditions: for kobs: observed rate constant of racemization in ethanol at the heating temperature (not given), in s^-1
Procedure: Enantiomerically enriched atropisomeric pyrrolopyrimidine analogues were isolated via chiral HPLC (Daicel Chiralpak IA PN:80335, 3 mL/min, 80:20 or 50:50 hexanes:ethanol, 25° C.) and evaporated in vacuo. The enantiomerically enriched analogues were then dissolved in ethanol and placed in a sealed 2-dram vial and heated under constant temperature on an aluminum block. At each time point, an aliquot of the mixture was removed and quenched in an HPLC vial containing ice cold 80:20 hexanes:ethanol. Each sample was then injected into the chiral HPLC system (Daicel Chiralpak IA PN:80325, 1 mL/min, 80:20 or 50:50 hexanes:ethanol, 25° C.) and enantiomeric excess (ee) measured. The timepoint and enantiomeric excess (ee) data was then plotted in order to determine an observed rate constant, kobs, at the corresponding temperature. The barrier to rotation was then calculated using the relationship of kracemization=2*kenantiomenzation and then substituted into the Gibbs Free Energy Equation:
[formula] where h=Planck Constant, kb=Boltzmann Constant, T=Temp. (K), R=Gas Constant.

Structure (SMILES): COc1ccc(Cl)c(-c2c(Cl)n(C(C)(C)C)c3ncnc(N)c23)c1 (single isomer, unassigned) [2e-(R), 7-(tert-butyl)-6-chloro-5-(2-chloro-5-methoxyphenyl)-7H-pyrrolo[2,3-d]pyrimidin-4-amine]
- IC50 of compound Kinase/IC50 of compound Yes (Ret kinase): 2.07
- augmentation/increase of 5's inherent selectivity (Ret kinase; Ret versus Abl and Src): 4 fold
- IC50 of compound Kinase/IC50 of compound Yes (Src kinase): 6.22
- IC50 of compound Kinase/IC50 of compound Yes (EGFR): >10.0
- IC50 (Abl): ≥ 10 µM
- IC50 of compound Kinase/IC50 of compound Yes (Abl): 10.0
- IC50 of compound Kinase/IC50 of compound Yes (Yes): 1
- S(40%): number of kinases inhibited greater than 40% divided by number of kinases tested (including Src) ([1]; 1000 nM): 0.11
- S(40%): number of kinases inhibited greater than 40% divided by number of kinases tested (including Src) ([1]; 5000 nM): 0.44
- Inhibited % (n/18) of tyrosine kinases ([1]; share of the 18 tyrosine kinases inhibited, concentration not printed in Table 3): (R): Inhibited 11% (2/18)

Structure (SMILES): COc1ccc(-c2c(CN)n(C(C)(C)C)c3ncnc(N)c23)c(C)c1 (single isomer, unassigned) [(Sa)-8]
- IC50 (Ret kinase): 9070 nM
- IC50 (Src kinase): > 10000 nM

Structure (SMILES): Cc1c(-c2cccc3ccccc23)c2c(N)ncnc2n1C(C)C (single isomer, unassigned) [(Sa)-9]
- IC50 (Ret kinase): 8810 nM
- IC50 (Src kinase): > 10000 nM

Structure (SMILES): Cc1c(-c2cccc3ccccc23)c2c(N)ncnc2n1C(C)(C)C (single isomer, unassigned) [(Sa)-10]
- IC50 (Ret kinase): 9560 nM
- IC50 (Src kinase): > 10000 nM

Structure (SMILES): Cc1c(-c2cncc3ccccc23)c2c(N)ncnc2n1C(C)(C)C (single isomer, unassigned) [(Sa)-12]
- IC50 (Ret kinase): 17 nM
- IC50 (Src kinase): 316 nM

Structure (SMILES): COc1ccc(Cl)c(-c2c(Cl)n(C3CCCC3)c3ncnc(N)c23)c1 [Compound 1e, 6-chloro-5-(2-chloro-5-methoxyphenyl)-7-cyclopentyl-7H-pyrrolo[2,3-d]pyrimidin-4-amine]
- Barrier to Rotation [2]: 27.2 kcal/mol
- kobs [2]: 1.24E−04

Structure (SMILES): COc1ccc(Br)c(-c2c(Cl)n(C3CCCC3)c3ncnc(N)c23)c1 [Compound 1f, 5-(2-bromo-5-methoxyphenyl)-6-chloro-7-cyclopentyl-7H-pyrrolo[2,3-d]pyrimidin-4-amine]
- Barrier to Rotation [2]: 29.0 kcal/mol
- kobs [2]: 1.01E−05

Structure (SMILES): COc1ccc(Cl)c(-c2c(Cl)n(C(C)(C)C)c3ncnc(N)c23)c1 [Compound 2e, 7-(tert-butyl)-6-chloro-5-(2-chloro-5-methoxyphenyl)-7H-pyrrolo[2,3-d]pyrimidin-4-amine]
- Barrier to Rotation [2]: 28.6 kcal/mol
- kobs [2]: 3.27E−05

Structure (SMILES): COc1ccc(Br)c(-c2c(Cl)n(C(C)(C)C)c3ncnc(N)c23)c1 [Compound 2f, 5-(2-bromo-5-methoxyphenyl)-7-(tert-butyl)-6-chloro-7H-pyrrolo[2,3-d]pyrimidin-4-amine]
- Barrier to Rotation [2]: 30.4 kcal/mol
- kobs [2]: 2.68E−05

Structure (SMILES): COc1cccc(-c2cn(C(C)(C)C)c3ncnc(N)c23)c1 [Compound 5, reference compound]
- IC50 of compound Kinase/IC50 of compound Yes (Ret kinase): 1.4
- IC50 of compound Kinase/IC50 of compound Yes (Src kinase): 1.64
- IC50 of compound Kinase/IC50 of compound Yes (EGFR): 7 and 6.96
- IC50 of compound Kinase/IC50 of compound Yes (Abl): 2.65
- relative selectivities favoring Yes (IC50 kinase/IC50 YES) over Ret, Src, and Abl (Yes): 1.4-2.65 fold
- IC50 of compound Kinase/IC50 of compound Yes (Yes): 1
- S(40%): number of kinases inhibited greater than 40% divided by number of kinases tested (including Src) ([1]; 200 nM): 0.44
- activity for the tyrosine kinase panel tested ([1]; 200 nM and 1000 nM): near pan activity
- S(40%): number of kinases inhibited greater than 40% divided by number of kinases tested (including Src) ([1]; 1000 nM): 0.72
